Test results published in article PMC11792066, “Development of benzofuran-derived sulfamates as dual aromatase-steroid sulfatase inhibitors (DASIs): design, synthesis and biological evaluation” (RSC Medicinal Chemistry, 2025).
Values joined by “and” are separate entries in the source; they are usually repeats but may differ in a detail not shown here. Equal values may be shown once. Read-outs that look alike come from different tables or passages of the source.

Key:
[1] = molecular target: T1, aromatase (CYP19A1) (Homo sapiens, UniProt P11511); assay: Aromatase activity assay, modified tritiated water assay in JEG-3 cells; format: cell-based; conditions: 1 h incubation, triplicate
T1 construct: host or cells: JEG-3 cells
T1 sequence (P11511 1-503): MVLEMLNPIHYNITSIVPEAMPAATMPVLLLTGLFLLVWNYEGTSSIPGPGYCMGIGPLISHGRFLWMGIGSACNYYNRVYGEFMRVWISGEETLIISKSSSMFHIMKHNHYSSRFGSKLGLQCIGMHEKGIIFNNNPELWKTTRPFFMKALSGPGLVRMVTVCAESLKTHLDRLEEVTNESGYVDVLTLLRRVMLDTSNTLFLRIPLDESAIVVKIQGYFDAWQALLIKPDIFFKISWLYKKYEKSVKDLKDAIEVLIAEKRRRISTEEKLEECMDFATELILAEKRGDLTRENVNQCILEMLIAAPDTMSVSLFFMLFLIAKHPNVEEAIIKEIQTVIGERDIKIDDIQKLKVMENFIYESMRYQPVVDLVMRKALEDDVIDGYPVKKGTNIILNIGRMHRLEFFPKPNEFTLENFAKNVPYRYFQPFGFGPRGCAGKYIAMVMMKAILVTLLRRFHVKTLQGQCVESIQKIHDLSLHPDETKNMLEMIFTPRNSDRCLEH
Protocol: Seven compounds including the two carbamate side products were investigated for their aromatase inhibitory activity at 10 nM using the previously reported modified tritiated water assay.[20]
(§1) JEG-3 cells (ATCC) were cultured in Eagle's minimal essential medium (EMEM) supplemented with 10% fetal calf serum (FCS). The cells were maintained at 37 °C in a humidified incubator with 5% CO2. Then, the cells were cultured to approximately 80% confluence before any treatments were applied.
The aromatase activity was measured using a modified tritiated water assay. The JEG-3 cells were cultured in six-well plates in EMEM until reaching 80% confluence. The substrate androst-4-ene-3,17-dione [1β-^3H] was added to each well in a serum-free medium. In the presence and absence of dual inhibitors (at concentrations ranging from 0.001 to 10 nM), the cells were incubated at 37 °C for 1 hour. The reaction was stopped by placing the plates on ice for 5 minutes. The medium (500 μL) was obtained, vortexed with 2% dextran-treated charcoal in PBS, and centrifuged at 4000 rpm. [^3H]H2O in the supernatant was quantified using scintillation counting. The aromatase activity was normalized to protein concentration, determined by the Pierce BCA assay kit (Thermo Fisher Scientific), and expressed as pmol of product per mg of protein per hour.

[2] = molecular target: T2, steroid sulfatase (STS) (Homo sapiens, UniProt P08842); assay: Steroid sulfatase activity assay, cell-free JEG-3 lysate, [3H]oestrone sulfate substrate; format: biochemical; conditions: for IC50: 20 μM E1S, 37 °C, 1 h, triplicate
T2 construct: lysates from JEG-3 cells, known to have high endogenous STS activity; host or cells: JEG-3 cell lysate (supernatant after centrifugation)
T2 sequence (P08842 22-583): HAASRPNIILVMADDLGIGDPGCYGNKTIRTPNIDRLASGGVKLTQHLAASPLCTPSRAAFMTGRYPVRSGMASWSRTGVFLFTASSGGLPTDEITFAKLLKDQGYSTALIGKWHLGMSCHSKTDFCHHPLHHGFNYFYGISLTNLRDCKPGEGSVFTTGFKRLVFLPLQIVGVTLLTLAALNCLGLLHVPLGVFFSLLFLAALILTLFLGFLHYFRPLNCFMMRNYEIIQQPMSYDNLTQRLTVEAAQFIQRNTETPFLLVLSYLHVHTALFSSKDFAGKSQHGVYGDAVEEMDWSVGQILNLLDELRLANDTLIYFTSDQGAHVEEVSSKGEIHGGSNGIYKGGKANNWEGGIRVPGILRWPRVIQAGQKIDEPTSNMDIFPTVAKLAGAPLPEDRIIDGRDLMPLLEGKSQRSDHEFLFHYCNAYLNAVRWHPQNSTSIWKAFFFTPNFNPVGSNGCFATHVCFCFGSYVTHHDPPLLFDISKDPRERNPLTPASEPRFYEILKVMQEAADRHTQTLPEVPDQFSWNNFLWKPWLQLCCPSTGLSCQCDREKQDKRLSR
Protocol: as §1
STS activity was measured using an in vitro, cell-free assay. Briefly, lysates from JEG-3 cells, known to have high endogenous STS activity, were prepared by lysing the cells with a buffer (50 mM Tris-HCl, pH 7.4, and 1 mM EDTA). After centrifugation, the supernatant was collected and protein concentrations were determined using a BCA assay kit.
For the steroid sulfatase assay, 125 μg of JEG-3 lysate was incubated with the substrate [^3H]oestrone sulfate (E1S, 4 × 10^5 dpm) diluted to a final concentration of 20 μM using non-radioactive E1S. The mixture was incubated in the presence of different concentrations of inhibitors (ranging from 10^−11 M to 10^−5 M) at 37 °C for 1 hour. After incubation, the reaction was stopped by placing the tubes on ice, and the estrone product formed was separated from the substrate by extraction with toluene. [^14C]oestrone was added to the organic phase as an internal standard to monitor recovery and procedural losses.
The organic phase was subjected to liquid scintillation counting to measure both ^3H and ^14C. The amount of E1S hydrolysed was calculated from the ^3H counts, corrected for recovery using the ^14C standard, and converted into molar concentrations of hydrolysed product. The inhibitory activity of test compounds was expressed as the IC50 value, representing the concentration required to inhibit 50% of the STS activity.

[3] = JEG-3 cells, read-out: Arom IC50

Structure (SMILES) | IC50 [1, 3] [nM] | STS inhibitory activity (in words) [2] | IC50 ([1]; Arom IC50, JEG-3 cells) [nM] | IC50 [2]
NS(=O)(=O)Oc1ccc(C(c2cc3cc(Cl)ccc3o2)n2cncn2)cc1 (stereo not drawn) [8a, 4-((5-Chlorobenzofuran-2-yl)(1H-1,2,4-triazol-1-yl)methyl)phenyl sulfamate] | > 10 | neither the triazole sulfamates (6, 7, 8a, 9, 10a) nor the triazole carbamates (8b, 10b) displayed STS inhibitory activity | – | –
NC(=O)Oc1ccc(C(c2cc3cc(Cl)ccc3o2)n2cncn2)cc1 (stereo not drawn) [8b] | – | neither the triazole sulfamates (6, 7, 8a, 9, 10a) nor the triazole carbamates (8b, 10b) displayed STS inhibitory activity | 4.1 | –
N#Cc1ccc(C(c2cc3ccc(OS(N)(=O)=O)cc3o2)n2cncn2)cc1 (stereo not drawn) [10a, 2-((4-Cyanophenyl)(1H-1,2,4-triazol-1-yl)methyl)benzofuran-6-yl sulfamate] | 1.52 | neither the triazole sulfamates (6, 7, 8a, 9, 10a) nor the triazole carbamates (8b, 10b) displayed STS inhibitory activity | – | –
N#Cc1ccc(C(c2cc3ccc(OC(N)=O)cc3o2)n2cncn2)cc1 (stereo not drawn) [10b, 2-((4-Cyanophenyl)(1H-1,2,4-triazol-1-yl)methyl)benzofuran-6-yl carbamate] | – | neither the triazole sulfamates (6, 7, 8a, 9, 10a) nor the triazole carbamates (8b, 10b) displayed STS inhibitory activity | 0.65 | –
NS(=O)(=O)Oc1ccc2cc(C(=O)c3ccc(F)cc3)oc2c1 [18a, 2-(4-Fluorobenzoyl)benzofuran-6-yl sulfamate] | > 1000 | – | – | 740 nM
NS(=O)(=O)Oc1ccc2cc(C(=O)c3ccc(Cl)cc3)oc2c1 [18b, 2-(4-Chlorobenzoyl)benzofuran-6-yl sulfamate] | > 1000 | – | – | 410 nM
NS(=O)(=O)Oc1ccc2cc(C(=O)c3ccc(Br)cc3)oc2c1 [18c, 2-(4-Bromobenzoyl)benzofuran-6-yl sulfamate] | > 1000 | – | – | 510 nM
NS(=O)(=O)Oc1ccc2cc(C(=O)c3ccc(Cl)cc3Cl)oc2c1 [18d, 2-(2,4-Dichlorobenzoyl)benzofuran-6-yl sulfamate] | > 1000 | – | – | 310 nM
COc1ccc(C(=O)c2cc3ccc(OS(N)(=O)=O)cc3o2)cc1 [18e, 2-(4-Methoxybenzoyl)benzofuran-6-yl sulfamate] | > 1000 | – | – | 115 nM
N#Cc1ccc(C(=O)c2cc3ccc(OS(N)(=O)=O)cc3o2)cc1 [18f, 2-(4-Cyanobenzoyl)benzofuran-6-yl sulfamate] | > 1000 | – | – | 280 nM
Cc1c(C(=O)c2ccc(F)cc2)oc2cc(OS(N)(=O)=O)ccc12 [19a, 2-(4-Fluorobenzoyl)-3-methylbenzofuran-6-yl sulfamate] | 50 | – | – | 654 nM
Cc1c(C(=O)c2ccc(Cl)cc2)oc2cc(OS(N)(=O)=O)ccc12 [19b, 2-(4-Chlorobenzoyl)-3-methylbenzofuran-6-yl sulfamate] | 137 | – | – | 48 nM
Cc1c(C(=O)c2ccc(Br)cc2)oc2cc(OS(N)(=O)=O)ccc12 [19c, 2-(4-Bromobenzoyl)-3-methylbenzofuran-6-yl sulfamate] | 22 | – | – | 830 nM
Cc1c(C(=O)c2ccc(Cl)cc2Cl)oc2cc(OS(N)(=O)=O)ccc12 [19d, 2-(2,4-Dichlorobenzoyl)-3-methylbenzofuran-6-yl sulfamate] | 20 | – | – | 1500 nM
COc1ccc(C(=O)c2oc3cc(OS(N)(=O)=O)ccc3c2C)cc1 [19e, 2-(4-Methoxybenzoyl)-3-methylbenzofuran-6-yl sulfamate] | 35 | – | – | 164 nM
N#Cc1ccc(C(c2ccc(C#N)cc2)n2cncn2)cc1 [Letrozole, reference compound] | – | – | – | > 1000 nM
NS(=O)(=O)Oc1ccc2c3c(c(=O)oc2c1)CCCCC3 [STX64, Irosustat, reference compound] | > 1000 | – | – | –
NS(=O)(=O)Oc1ccc2cc(C(c3ccc(Cl)cc3)n3cncn3)oc2c1 (stereo not drawn) [compound 6, 2-((4-Chlorophenyl)(1H-1,2,4-triazol-1-yl)methyl)benzofuran-6-yl sulfamate] | 1.4 | neither the triazole sulfamates (6, 7, 8a, 9, 10a) nor the triazole carbamates (8b, 10b) displayed STS inhibitory activity | – | –
NS(=O)(=O)Oc1ccc2oc(C(c3ccc(Cl)cc3)n3cncn3)cc2c1 (stereo not drawn) [compound 7, 2-((4-Chlorophenyl)(1H-1,2,4-triazol-1-yl)methyl)benzofuran-5-yl sulfamate] | 5.49 | neither the triazole sulfamates (6, 7, 8a, 9, 10a) nor the triazole carbamates (8b, 10b) displayed STS inhibitory activity | – | –
NS(=O)(=O)Oc1ccc2cc(C(c3ccc(F)cc3)n3cncn3)oc2c1 (stereo not drawn) [compound 9, 2-((4-Fluorophenyl)(1H-1,2,4-triazol-1-yl)methyl)benzofuran-6-yl sulfamate] | 8.4 | neither the triazole sulfamates (6, 7, 8a, 9, 10a) nor the triazole carbamates (8b, 10b) displayed STS inhibitory activity | – | –
NC(=O)Oc1ccc2cc(C(=O)c3ccc(Cl)cc3)oc2c1 [compound 20, 2-(4-Chlorobenzoyl)benzofuran-6-yl carbamate] | ≥ 1000 | – | – | ≥ 1000 nM and 1220 nM
Cc1c(C(=O)c2ccc(Cl)cc2)oc2cc(OC(N)=O)ccc12 [compound 21, 2-(4-Chlorobenzoyl)-3-methylbenzofuran-6-yl carbamate] | ≥ 1000 | – | – | ≥ 1000 nM and 980 nM
